# According to the METLIN SMRT retention time set (Domingo-Almenara et al. 2019):
# Assay: gradient 5% acetonitrile 3 min, to 50% in 2 min, to 85% in 15 min, held 3 min, 100 µL/min
# Settings: column: Zorbax Extend-C18 2.1 x 50 mm; eluents: water / acetonitrile, 0.1% formic acid
# Procedure, shortened: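 Retention times come from adduct peaks that were picked computationally and then checked by hand. The standards, pure and pooled in mixtures of ~100 molecules, were run on a Zorbax Extend-C18 column (2.1 × 50 mm, 1.8 μm) at 100 μL/min with water and acetonitrile, each with 0.1% formic acid. Detection was by quadrupole time-of-flight mass spectrometry in positive and negative ionization mode, with a dead volume of 40 μL and a dwell volume of 900 μL.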
row,SMILES,RP-LC retention time [s]
1,CC(C)C(=O)c1cn(CC(=O)COc2ccc(Oc3ccccc3)cc2)c2ccc(C(=O)O)cc12,1140
2,C=CCn1c(=O)c2ccccc2n(Cc2nc(-c3ccccc3Cl)no2)c1=O,1020
3,NC(=O)c1cc(-c2ccc(F)cc2)nc2ccccc12,776
4,COc1ccc(CCC(=O)Nc2cc(-c3cccnc3)no2)cc1,756
5,CCCn1c(C)cnc1C1CN(S(=O)(=O)c2ccc(F)c(Cl)c2)C1,706
6,COc1ccc(C2CC(=O)N(c3ccc(C)c(C)c3)C(=O)C2)cc1OC,893
7,Cc1cc(C)cc(Oc2nccn3c(=O)n(CC(=O)Nc4cccc(C(C)C)c4)nc23)c1,1080
8,CCCCNC(=O)C1CCCN1C(=O)c1ccc(NC(=O)C(C)(C)C)cc1 (stereo not drawn),693
9,Cc1ccc(Nc2c(-c3cc(Br)ccc3F)nc3ccccn23)cc1,801
10,CC(C)OCCCNC(=O)c1nnc(-c2ccc(S(=O)(=O)N3CCCCC3)cc2)o1,917
11,O=[N+]([O-])c1c(NCCO)cc(Nc2ccc3c(c2)OCCO3)c2nonc12,660
12,CCOc1ccc(NC(=O)Cc2nnc(-c3ccncc3)o2)cc1,670
13,Cc1noc(C)c1CNC(=O)c1cccc(OC(F)(F)F)c1,864
14,CCOc1ccc2nc(Nc3ncc4c(n3)CC(c3ccc(OC)cc3)CC4=O)nc(C)c2c1 (stereo not drawn),809
15,CS(=O)(=O)N1CC(C(=O)Nc2ccccc2-c2ccccc2)Oc2ccccc21 (stereo not drawn),1090
16,CC(C)(C)n1nnnc1C1CC2(CCOCC2)C(=O)N1CCc1c[nH]c2ccccc12 (stereo not drawn),770
17,O=C(CCc1conc1-c1cccc(F)c1)NCc1ccc(F)cc1,899
18,Cc1cc2nn(CC(=O)Nc3cccc(Cl)c3)c(=O)n2c(Nc2ccccc2)n1,1060
19,CC1CCN(S(=O)(=O)c2ccc3nn(CCOc4ccc(F)cc4)c(=O)n3c2)CC1,1340
20,Cc1cccc(Nc2cc(C)nc3ccnn23)c1,613
21,Cc1noc([C@@H]2CC(F)(F)CN2S(=O)(=O)c2ccccc2C)n1,909
22,CC(=O)Nc1c(C)noc1/C=C\c1ccc(S(=O)(=O)N2CCN(c3ncccn3)CC2)cc1,762

row,SMILES,RP-LC retention time [s]
1,CCCc1cc(N2CCN(C(=O)Cc3ccsc3)CC2)nc2nnc(CC)n12,649
2,CC(=O)Nc1ncncc1N1CCC(C(=O)NCc2cccc(C(F)(F)F)c2)CC1,698
3,CC(=O)c1ccc(NC(=O)CN2C(=O)CCn3nc(-c4cn(C)c5ccccc45)cc32)cc1,791
4,O=C(Nc1cc(F)ccc1F)c1c(O)c2cccnc2n(Cc2ccccc2)c1=O,1170
5,CCOc1ccc(NC(=O)Cn2cnc3nc(N4CCCC(C(=O)NC(C)C)C4)sc3c2=O)cc1 (stereo not drawn),698
6,COCCc1noc(-c2cnc3nc(C)ccc3c2Nc2cccc(F)c2)n1,729
7,CCc1cc(C(=O)Nc2cccc(C)c2)nc2ccnn12,995
8,Cc1ccccc1NC(=O)Cn1nc2n(c1=O)CCCC2,630
9,O=C(Nc1cnn(-c2ncncc2N2CCCCC2)c1)c1ccc2c(c1)OCO2,702
10,CCOc1ccc(C2Cn3nnc(-c4nc(-c5ccccc5OC)no4)c3CO2)cc1 (stereo not drawn),1090
11,Cc1c(CC(=O)NCC(C)C)c(=O)n2nc(-c3ccccc3)nc2n1C,717
12,O=C(c1n[nH]c2ccccc12)N1CCCn2nc(-c3cccs3)cc2C1,791
13,Cc1ccccc1-c1nc(C2CCN(S(=O)(=O)c3ccc(C(C)C)cc3)CC2)no1,1340
14,Cc1cc(-c2nnc(-c3ccccc3)o2)c(C)n1CC(=O)Nc1cc(F)cc(F)c1,747
15,CCOc1ccc(CNC(=O)C2CCN(S(=O)(=O)c3cn(CC)cn3)CC2)cc1,696
16,CC1CCC(NC(=O)C2CCN(C(=O)c3ncn4c3COC(c3ccc(F)cc3)C4)CC2)CC1 (stereo not drawn),826
17,CN1CC(=O)N(CC(=O)Nc2ccc(OC(F)(F)F)cc2)c2ccccc2C1=O,777
18,COC(=O)c1ccc(NC(=O)Cc2csc(NC(=O)c3ncccn3)n2)cc1,642
19,CC(C)(C)c1ccc(-c2noc(-c3nn(-c4cccc(F)c4)ccc3=O)n2)cc1,1140
20,O=C(NC1CCCCCC1)C1CCN(S(=O)(=O)c2ccc(-c3noc(C4CC4)n3)cc2)CC1,836
21,NC(=O)[C@@H]1C[C@@H](O)CN1C1CCN(C(=O)CC2=CCCCC2)CC1,575
